# Data from US6753337B2, “Alkynyl containing hydroxamic acid compounds as matrix metalloproteinase/tace inhibitors” (Wyeth Holdings Corporation, priority 1999, dated 2004).
# Counter-ions that a name gives are not always drawn.
# Tests used:
# [1] = target: MMP-9 (Homo sapiens, UniProt P14780); assay: MMP-9 inhibition (thiopeptide or fluorescent peptide substrate); type: biochemical; details: read-out: MMP9 IC50
# [2] = target: T1, MMP-1 (Homo sapiens, UniProt P03956); assay: MMP-1 inhibition (thiopeptide or fluorescent peptide substrate); type: biochemical; details: read-out: MMP1 IC50
# T1 sequence (P03956 100-469): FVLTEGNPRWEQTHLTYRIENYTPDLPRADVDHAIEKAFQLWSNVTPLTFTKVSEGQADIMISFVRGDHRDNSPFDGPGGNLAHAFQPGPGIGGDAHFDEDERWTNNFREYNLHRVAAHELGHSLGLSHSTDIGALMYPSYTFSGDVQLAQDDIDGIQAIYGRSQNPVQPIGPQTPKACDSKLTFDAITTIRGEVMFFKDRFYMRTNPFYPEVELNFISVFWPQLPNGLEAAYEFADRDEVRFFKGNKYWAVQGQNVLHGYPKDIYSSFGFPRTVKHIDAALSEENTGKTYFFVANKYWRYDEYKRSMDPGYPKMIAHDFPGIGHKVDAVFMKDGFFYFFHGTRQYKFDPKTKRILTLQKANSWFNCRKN
# [3] = test system: THP-1 cells; assay: Human monocytic THP-1 cell differentiation assay for soluble proteins (THP-1 soluble protein assay); type: cell-based; details: LPS-stimulated THP-1 cells, soluble protein not given
# MMP-9, sequence (P14780 94-707): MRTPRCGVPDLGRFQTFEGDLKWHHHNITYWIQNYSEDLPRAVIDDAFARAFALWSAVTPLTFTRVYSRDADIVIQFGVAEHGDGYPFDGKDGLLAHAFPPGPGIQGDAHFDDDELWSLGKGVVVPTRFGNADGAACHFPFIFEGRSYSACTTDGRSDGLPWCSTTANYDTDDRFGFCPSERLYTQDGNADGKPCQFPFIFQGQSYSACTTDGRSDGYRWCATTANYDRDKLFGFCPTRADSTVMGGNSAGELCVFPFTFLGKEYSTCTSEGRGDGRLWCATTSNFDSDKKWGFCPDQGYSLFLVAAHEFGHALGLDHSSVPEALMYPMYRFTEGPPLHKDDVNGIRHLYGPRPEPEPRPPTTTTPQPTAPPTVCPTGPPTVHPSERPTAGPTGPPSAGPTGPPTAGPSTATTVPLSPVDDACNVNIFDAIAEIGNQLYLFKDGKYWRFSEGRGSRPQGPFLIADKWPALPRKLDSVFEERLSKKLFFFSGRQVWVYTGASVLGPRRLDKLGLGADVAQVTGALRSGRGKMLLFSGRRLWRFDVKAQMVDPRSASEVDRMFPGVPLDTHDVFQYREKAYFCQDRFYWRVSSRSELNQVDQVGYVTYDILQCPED
Compound,IC50 [1] [µM],IC50 [2] [µM],inhibition at 3 µM [3] [%]
"CC#CCOc1ccc(S(=O)(=O)C2(C(=O)NO)CCN(C(=O)c3ccc(OC)cc3)CC2)cc1 [Example 66, 1-(4-Methoxybenzoyl)-4-(4-but-2-ynyloxybenzenesulfonyl)piperidine-4-carboxylic acid hydroxamide]",0.43,2.77,73
"CC#CCOc1ccc(S(=O)(=O)C2(C(=O)NO)CCN(C(=O)N3CCCC3)CC2)cc1 [Example 67, 4-(4-But-2-ynyloxybenzenesulfonyl)-N-hydroxy-1-(pyrrolidine-1-carbonyl)-4-piperidinecarboxamide]",0.853,2.03,18
"CC#CCOc1ccc(S(=O)(=O)C2(C(=O)NO)CCN(C(=O)OCC)CC2)cc1 [Example 68, Ethyl 4-(4-but-2-ynyloxybenzenesulfonyl)-4-[(hydroxyamino)-carbonyl]-1-piperidinecarboxylate]",1.33,2.25,10
"CC#CCOc1ccc(S(=O)(=O)C2(C(=O)NO)CCN(S(=O)(=O)C(F)(F)F)CC2)cc1 [Example 69, 4-(4-But-2-ynyloxybenzenesulfonyl)-N-hydroxy-1-[(trifluoromethyl)-sulfonyl]-4-piperidinecarboxamide]",1.25,4,14
"CC#CCOc1ccc(S(=O)(=O)C2(C(=O)NO)CCN(C(=O)c3cccnc3)CC2)cc1 [Example 70, 4-(4-But-2-ynyloxybenzenesulfonyl)-N-hydroxy-1-(3-pyridinylcarbonyl)-4-piperidinecarboxamide]",0.639,2.96,62
"CC#CCOc1ccc(S(=O)(=O)C2(C(=O)NO)CCN(C(=O)c3cccs3)CC2)cc1 [Example 71, 4-(4-but-2-ynyloxybenzenesulfonyl)-N-hydroxy-1-(2-thienylcarbonyl)-4-piperidinecarboxamide]",0.811,3.12,14
"CC#CCOc1ccc(S(=O)(=O)C2(C(=O)NO)CCN(S(=O)(=O)c3ccc(OC)cc3)CC2)cc1 [Example 72, 4-(4-but-2-ynyloxybenzenesulfonyl)-N-hydroxy-1-[(4-methoxyphenyl)-sulfonyl]-4-piperidinecarboxamide]",1.21,4.16,56
"CC#CCOc1ccc(S(=O)(=O)C2(C(=O)NO)CCN(C(=O)C(C)(CO)CO)CC2)cc1 [Example 74, 4-(4-But-2-ynyloxybenzenesulfonyl)-N-hydroxy-1-[3-hydroxy-2-(hydroxymethyl)-2-methylpropanoyl]-4-piperidinecarboxamide]",0.963,4.34,39
"CC#CCOc1ccc(S(=O)(=O)C2(C(=O)NO)CCN(C(=O)OC(C)(C)C)CC2)cc1 [Example 75, Tert-butyl 4-{[4-(2-butynyloxy)phenyl]sulfonyl}-4-[(hydroxyamino)carbonyl-]-1-piperidinecarboxalate]",1.95,2.59,-4
"CC#CCOc1ccc(S(=O)(=O)C2(C(=O)NO)CCNCC2)cc1 [Example 76, 4-{[4-(2-butynyloxy)phenyl]sulfonyl}-N-hydroxy-4-piperidinecarboxamide hydrochloride]",7.89,4.5,26
"CC#CCOc1ccc([S+]([O-])C2(C(=O)NO)CCNCC2)cc1 (stereo not drawn) [Example 81, 4-(4-(But-2-ynyloxy-benzenesulfinyl)-piperidine-4-carboxylic acid hydroxamide hydrochloride]",1.03,1.88,25

# The next compounds have a lower IC50 [1] than those just listed; values first:
IC50 [1] [µM],IC50 [2] [µM],Compound,inhibition at 3 µM [3] [%]
0.149,2.19,"CC#CCOc1ccc(S(=O)(=O)C2(C(=O)NO)CCN(Cc3ccc(C(=O)OC)cc3)CC2)cc1 [Example 77, hydrochloride]",52
0.364,1.05,"CC#CCOc1ccc(S(=O)(=O)C2(C(=O)NO)CCN(Cc3ccc(C(=O)O)cc3)CC2)cc1 [Example 78, 4-({4-{[4-(2-butynyloxy)phenyl]sulfonyl}-4-[(hydroxyamino)-carbonyl]-1-piperidinyl}methyl)benzoic acid hydrochloride]",64
0.129,2.42,"CC#CCOc1ccc(S(=O)(=O)C2(C(=O)NO)CCN(Cc3ccc(C(N)=O)cc3)CC2)cc1 [Example 79, 1-[4-(Aminocarbonyl)benzyl]-4-{[4-(2-butynyloxy)phenyl]sulfonyl}-N-hydroxy-4-piperidinecarboxamide hydrochloride]",83
0.122,186,"CC#CCOc1ccc([S+]([O-])C2(C(=O)NO)CCN(C(=O)OC(C)(C)C)CC2)cc1 (stereo not drawn) [Example 80, tert-butyl 4-{[4-(but-2-ynyloxy)phenyl]sulfinyl}-4-[(hydroxyamino)carbonyl]piperidine-1-carboxalate]",-7
0.125,257,"CC#CCOc1ccc([S+]([O-])C2(C(=O)NO)CCN(Cc3ccc(Br)cc3)CC2)cc1 (stereo not drawn) [Example 82, 1-(4-Bromo-benzyl)-4-(4-But-2-ynyloxy-benzenesulfinyl)-piperidine-4-carboxylic acid hydroxamide hydrochloride]",16
